Laboratory results as given in patent US11878975B2, “Substituted indole compounds useful as TLR inhibitors” (BRISTOL-MYERS SQUIBB COMPANY, priority 2017, dated 2024).

Columns and labels:
Type in all cases: cell-based
human TLR9 = molecular target: T1, human TLR9 (Homo sapiens, UniProt Q9NR96); assay: TLR9 inhibition reporter assay (HEK-Blue cells, SEAP reporter, ODN2006 stimulation); conditions: HEK-Blue cells overexpressing human TLR9, SEAP reporter, ODN2006 5 nM
T1 construct: host or cells: HEK-Blue cells
T1 sequence (Q9NR96 26-1032): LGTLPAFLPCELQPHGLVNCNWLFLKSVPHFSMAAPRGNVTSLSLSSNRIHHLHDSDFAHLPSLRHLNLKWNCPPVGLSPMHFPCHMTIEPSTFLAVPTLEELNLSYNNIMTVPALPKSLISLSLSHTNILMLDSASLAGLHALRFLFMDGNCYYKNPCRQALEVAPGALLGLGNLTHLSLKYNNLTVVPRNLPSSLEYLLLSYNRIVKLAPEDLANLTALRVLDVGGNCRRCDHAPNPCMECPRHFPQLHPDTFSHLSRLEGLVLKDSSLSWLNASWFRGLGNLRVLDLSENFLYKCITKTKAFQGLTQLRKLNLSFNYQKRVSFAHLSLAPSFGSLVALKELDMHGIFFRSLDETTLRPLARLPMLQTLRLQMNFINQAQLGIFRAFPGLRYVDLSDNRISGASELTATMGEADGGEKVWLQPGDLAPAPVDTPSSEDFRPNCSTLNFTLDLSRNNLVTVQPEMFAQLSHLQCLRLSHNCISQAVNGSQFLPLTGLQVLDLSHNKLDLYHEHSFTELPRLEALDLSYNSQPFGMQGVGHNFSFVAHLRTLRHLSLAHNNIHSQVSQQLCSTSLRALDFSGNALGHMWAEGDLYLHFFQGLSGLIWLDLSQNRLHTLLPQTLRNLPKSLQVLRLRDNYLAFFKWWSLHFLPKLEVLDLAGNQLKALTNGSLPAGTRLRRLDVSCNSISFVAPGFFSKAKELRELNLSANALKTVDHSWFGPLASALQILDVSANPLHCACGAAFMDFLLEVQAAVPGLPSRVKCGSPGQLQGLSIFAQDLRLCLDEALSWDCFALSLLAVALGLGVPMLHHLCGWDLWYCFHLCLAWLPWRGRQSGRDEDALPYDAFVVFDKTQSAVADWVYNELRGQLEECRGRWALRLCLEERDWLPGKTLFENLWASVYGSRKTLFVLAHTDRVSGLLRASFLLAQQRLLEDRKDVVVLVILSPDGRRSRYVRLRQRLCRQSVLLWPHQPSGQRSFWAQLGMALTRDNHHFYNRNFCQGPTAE
Procedure, shortened: (§1)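 HEK-Blue cells with NF-κB/AP-1-driven SEAP reporter, pre-treated 30 min at room temperature with compound (0.05 nM-50 μM). Stimulants: gardiquimod 7.5 μM (TLR7), R848 15.9 μM (TLR8) or ODN2006 5 nM (TLR9). SEAP measured after 22 h at 37° C.; percent inhibition versus agonist-plus-DMSO and known-inhibitor wells.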

human TLR7 = molecular target: T2, human TLR7 (Homo sapiens, UniProt Q9NYK1); assay: TLR7 inhibition reporter assay (HEK-Blue cells, SEAP reporter, gardiquimod stimulation); conditions: HEK-Blue cells overexpressing human TLR7, SEAP reporter, gardiquimod 7.5 μM
T2 construct: host or cells: HEK-Blue cells
T2 sequence (Q9NYK1 27-1049): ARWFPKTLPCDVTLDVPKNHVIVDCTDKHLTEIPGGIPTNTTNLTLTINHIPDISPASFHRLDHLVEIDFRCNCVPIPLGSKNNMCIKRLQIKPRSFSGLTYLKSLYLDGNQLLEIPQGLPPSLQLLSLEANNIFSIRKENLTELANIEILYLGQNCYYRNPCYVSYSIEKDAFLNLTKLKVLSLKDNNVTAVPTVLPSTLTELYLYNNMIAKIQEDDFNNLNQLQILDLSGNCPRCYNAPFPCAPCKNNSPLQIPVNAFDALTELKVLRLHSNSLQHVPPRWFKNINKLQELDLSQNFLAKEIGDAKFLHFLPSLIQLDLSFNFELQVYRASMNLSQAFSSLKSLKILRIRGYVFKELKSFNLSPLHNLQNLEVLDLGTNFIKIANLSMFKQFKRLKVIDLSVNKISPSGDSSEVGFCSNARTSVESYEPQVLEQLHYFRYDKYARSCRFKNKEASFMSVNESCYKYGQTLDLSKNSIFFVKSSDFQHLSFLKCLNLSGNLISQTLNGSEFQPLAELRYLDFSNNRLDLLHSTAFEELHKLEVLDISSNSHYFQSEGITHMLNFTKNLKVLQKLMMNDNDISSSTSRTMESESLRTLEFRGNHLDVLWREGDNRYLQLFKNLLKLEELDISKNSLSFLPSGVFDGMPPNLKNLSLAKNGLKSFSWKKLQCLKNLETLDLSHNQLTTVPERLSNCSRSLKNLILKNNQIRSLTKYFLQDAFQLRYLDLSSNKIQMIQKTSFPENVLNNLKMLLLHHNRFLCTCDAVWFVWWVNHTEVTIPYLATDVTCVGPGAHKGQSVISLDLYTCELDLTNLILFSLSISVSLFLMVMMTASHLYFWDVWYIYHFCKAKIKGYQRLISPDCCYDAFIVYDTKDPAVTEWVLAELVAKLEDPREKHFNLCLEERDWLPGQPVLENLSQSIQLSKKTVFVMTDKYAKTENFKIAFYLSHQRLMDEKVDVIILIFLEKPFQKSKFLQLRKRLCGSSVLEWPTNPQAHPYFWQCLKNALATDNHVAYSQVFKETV
Procedure, shortened: as §1

human TLR8 = molecular target: T3, human TLR8 (Homo sapiens, UniProt Q9NR97); assay: TLR8 inhibition reporter assay (HEK-Blue cells, SEAP reporter, R848 stimulation); conditions: HEK-Blue cells overexpressing human TLR8, SEAP reporter, R848 15.9 μM
T3 construct: host or cells: HEK-Blue cells
T3 sequence (Q9NR97 27-1041): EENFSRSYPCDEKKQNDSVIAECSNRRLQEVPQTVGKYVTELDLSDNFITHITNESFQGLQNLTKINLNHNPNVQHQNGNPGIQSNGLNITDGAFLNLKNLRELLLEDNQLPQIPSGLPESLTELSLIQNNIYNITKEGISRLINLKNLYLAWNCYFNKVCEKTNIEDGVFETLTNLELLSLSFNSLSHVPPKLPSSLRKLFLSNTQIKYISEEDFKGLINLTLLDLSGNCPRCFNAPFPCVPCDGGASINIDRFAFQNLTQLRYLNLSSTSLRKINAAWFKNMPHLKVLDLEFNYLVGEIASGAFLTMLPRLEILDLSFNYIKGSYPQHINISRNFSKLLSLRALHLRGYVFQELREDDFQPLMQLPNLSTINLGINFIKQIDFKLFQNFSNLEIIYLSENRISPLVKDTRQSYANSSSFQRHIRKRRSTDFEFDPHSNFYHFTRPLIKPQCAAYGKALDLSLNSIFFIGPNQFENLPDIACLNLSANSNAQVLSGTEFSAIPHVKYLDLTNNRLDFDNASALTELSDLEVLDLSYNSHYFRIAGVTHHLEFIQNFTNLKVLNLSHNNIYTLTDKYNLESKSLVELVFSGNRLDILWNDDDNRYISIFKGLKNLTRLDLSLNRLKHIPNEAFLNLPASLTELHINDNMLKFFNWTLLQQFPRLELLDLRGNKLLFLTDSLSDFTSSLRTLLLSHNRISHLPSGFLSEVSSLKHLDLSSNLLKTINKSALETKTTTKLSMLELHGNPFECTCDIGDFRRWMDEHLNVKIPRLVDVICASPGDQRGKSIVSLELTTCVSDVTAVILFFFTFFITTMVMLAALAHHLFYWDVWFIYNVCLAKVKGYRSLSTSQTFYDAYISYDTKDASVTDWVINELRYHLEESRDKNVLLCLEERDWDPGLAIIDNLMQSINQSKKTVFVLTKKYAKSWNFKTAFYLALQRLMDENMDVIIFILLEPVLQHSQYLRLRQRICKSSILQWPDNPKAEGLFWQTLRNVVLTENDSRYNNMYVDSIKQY
Procedure, shortened: as §1

Compound | IC50 (human TLR9) | IC50 (human TLR7) | IC50 (human TLR8)
Cc1c(-c2[nH]c3ccc(C4CN(C(C)C)C4)cc3c2C(C)C)cn2cnnc2c1C [Example 534] | 7170 nM | 9 nM | 28 nM
Cc1c(-c2[nH]c3ccc(C4CN(CC5(C)COC5)C4)cc3c2C(C)C)cn2cnnc2c1C [Example 536] | 11000 nM | 26 nM | 21 nM
Cc1c(-c2[nH]c3ccc(C4CN(Cc5ncn(C)n5)C4)cc3c2C(C)C)cn2cnnc2c1C [Example 537] | 27800 nM | 51 nM | 40 nM
Cc1c(-c2[nH]c3ccc(C4CN(C5CCOC5)C4)cc3c2C(C)C)cn2cnnc2c1C (stereo not drawn) [Example 538] | 16500 nM | 33 nM | 45 nM
Cc1c(-c2[nH]c3ccc(C4CN(CC(=O)N(C)C)C4)cc3c2C(C)C)cn2cnnc2c1C [Example 539] | 1890 nM | 64 nM | 132 nM
Cc1c(-c2[nH]c3ccc(C4CN(C5COC5)C4)cc3c2C(C)C)cn2cnnc2c1C [Example 540] | 18600 nM | 19 nM | 36 nM
Cc1c(-c2[nH]c3ccc(C4CC(N)C4)cc3c2C(C)C)cn2ncnc2c1C (stereo not drawn) [Example 541] | 5740 nM | 2 nM | 0.79 nM
Cc1c(-c2[nH]c3ccc(C4CC(N)C4)cc3c2C(C)C)cn2ncnc2c1C (stereo not drawn) [Example 542] | 5100 nM | 3 nM | 1.2 nM
Cc1c(-c2[nH]c3ccc(C4CN(CCS(C)(=O)=O)C4)cc3c2C(C)C)cn2ncnc2c1C [Example 543] | 9490 nM | 4 nM | 5.1 nM
Cc1c(-c2[nH]c3ccc(C4CN(C5COC5)C4)cc3c2C(C)C)cn2ncnc2c1C [Example 544] | 21000 nM | 5 nM | 12 nM
Cc1c(-c2[nH]c3ccc(C4CNC4)cc3c2C(C)C)cn2ncnc2c1C [Example 545] | 2040 nM | 2 nM | 3.8 nM
CCCN1CC(c2ccc3[nH]c(-c4cn5cnnc5c(C)c4C)c(C(C)C)c3c2)C1 [Example 546] | 3870 nM | 4 nM | 5.8 nM

More lines, now with the values ahead:

IC50 (human TLR9) | IC50 (human TLR7) | IC50 (human TLR8) | Compound
4550 nM | 0.37 nM | 0.67 nM | Cc1c(-c2[nH]c3ccc(C4CN(C)C4)cc3c2C(C)C)cn2ncnc2c1C [Example 547]
8050 nM | 4 nM | 5.1 nM | Cc1c(-c2[nH]c3ccc(C4CN(CC(N)=O)C4)cc3c2C(C)C)cn2ncnc2c1C [Example 548]
2190 nM | 6 nM | 9.3 nM | Cc1c(-c2[nH]c3ccc(C4CN(CC(C)C)C4)cc3c2C(C)C)cn2cnnc2c1C [Example 549]
13600 nM | 17 nM | 13 nM | COCCN1CC(c2ccc3[nH]c(-c4cn5cnnc5c(C)c4C)c(C(C)C)c3c2)C1 [Example 550]
3350 nM | 2 nM | 3.2 nM | Cc1c(-c2[nH]c3ccc(C4CN(Cc5c[nH]nn5)C4)cc3c2C(C)C)cn2ncnc2c1C [Example 551]
5570 nM | 4 nM | 3.4 nM | CNC(=O)CN1CC(c2ccc3[nH]c(-c4cn5ncnc5c(C)c4C)c(C(C)C)c3c2)C1 [Example 552]
32300 nM | 4 nM | 7.2 nM | Cc1c(-c2[nH]c3ccc(C4CN(CC#N)C4)cc3c2C(C)C)cn2ncnc2c1C [Example 553]
5200 nM | 18 nM | 15 nM | Cc1c(-c2[nH]c3ccc(C4CN(CCCC(F)(F)F)C4)cc3c2C(C)C)cn2cnnc2c1C [Example 554]
7730 nM | 9 nM | 10 nM | Cc1c(-c2[nH]c3ccc(C4CN(C(C)C)C4)cc3c2C(C)C)cn2ncnc2c1C [Example 555]
5120 nM | 6 nM | 4.9 nM | Cc1c(-c2[nH]c3ccc(C4CN(CC(=O)N(C)C)C4)cc3c2C(C)C)cn2ncnc2c1C [Example 556]
6750 nM | 9 nM | 3.6 nM | Cc1c(-c2[nH]c3ccc(C4CN(CC(C)(C)O)C4)cc3c2C(C)C)cn2ncnc2c1C [Example 557]
3720 nM | 6 nM | 117 nM | Cc1c(-c2[nH]c3ccc(C4CC5CN(CC#N)CC5C4)cc3c2C(C)C)cn2cnnc2c1C (stereo not drawn) [Example 558]
2120 nM | 2 nM | 9.2 nM | Cc1c(-c2[nH]c3ccc(C4CC5CN(C)CC5C4)cc3c2C(C)C)cn2cnnc2c1C (stereo not drawn) [Example 559]
2330 nM | 1 nM | 27 nM | Cc1c(-c2[nH]c3ccc(C4CC5CN(C(C)C)CC5C4)cc3c2C(C)C)cn2cnnc2c1C (stereo not drawn) [Example 560]
4680 nM | 5 nM | 25 nM | Cc1c(-c2[nH]c3ccc(C4CC5CN(CC6(C)COC6)CC5C4)cc3c2C(C)C)cn2cnnc2c1C (stereo not drawn) [Example 561]
3710 nM | 4 nM | 28 nM | Cc1c(-c2[nH]c3ccc(C4CC5CN(C6CCOC6)CC5C4)cc3c2C(C)C)cn2cnnc2c1C (stereo not drawn) [Example 562]
